The supplement of paper PMC11451515

Test system: SEM cells
Experiment: cell viability relative to DMSO control; higher = less cytotoxic
Settings: 48 h
How it was run: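 NOMO1, SEM and P12-Ichikawa leukemia cells spent at least four passages adapting to each medium before use. They were seeded at 500 cells/well (NOMO1, SEM) or 1000 cells/well (P12-Ichikawa) in 5 μl in 1536-well plates and pin-dosed with library compounds in DMSO at 11 threefold steps from 47 μM down to 0.79 nM. After 48 h at 37°C, CellTiter-Glo One luminescence was read. Viability is reported as a percentage of the DMSO wells on each plate, with cell-free wells as background.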

[1] = HPLM + 10% dialyzed FBS, 0.000781 µM
[2] = HPLM + 10% dialyzed FBS, 0.00234 µM
[3] = HPLM + 10% dialyzed FBS, 0.00702 µM
[4] = HPLM + 10% dialyzed FBS, 0.0211 µM
[5] = HPLM + 10% dialyzed FBS, 0.0632 µM
[6] = HPLM + 10% dialyzed FBS, 0.19 µM
[7] = HPLM + 10% dialyzed FBS, 0.569 µM
[8] = HPLM + 10% dialyzed FBS, 1.71 µM
[9] = HPLM + 10% dialyzed FBS, 5.12 µM
[10] = HPLM + 10% dialyzed FBS, 15.4 µM
[11] = HPLM + 10% dialyzed FBS, 46.1 µM
[12] = RPMI 5 mM glucose + 10% FBS, 0.000781 µM
[13] = RPMI 5 mM glucose + 10% FBS, 0.00234 µM
[14] = RPMI 5 mM glucose + 10% FBS, 0.00702 µM
[15] = RPMI 5 mM glucose + 10% FBS, 0.0211 µM
[16] = RPMI 5 mM glucose + 10% FBS, 0.0632 µM
[17] = RPMI 5 mM glucose + 10% FBS, 0.19 µM
[18] = RPMI 5 mM glucose + 10% FBS, 0.569 µM
[19] = RPMI 5 mM glucose + 10% FBS, 1.71 µM
[20] = RPMI 5 mM glucose + 10% FBS, 5.12 µM
[21] = RPMI 5 mM glucose + 10% FBS, 15.4 µM
[22] = RPMI 5 mM glucose + 10% FBS, 46.1 µM
[23] = RPMI 5 mM glucose + 10% dialyzed FBS, 0.000781 µM
[24] = RPMI 5 mM glucose + 10% dialyzed FBS, 0.00234 µM
[25] = RPMI 5 mM glucose + 10% dialyzed FBS, 0.00702 µM
[26] = RPMI 5 mM glucose + 10% dialyzed FBS, 0.0211 µM
[27] = RPMI 5 mM glucose + 10% dialyzed FBS, 0.0632 µM
[28] = RPMI 5 mM glucose + 10% dialyzed FBS, 0.19 µM
[29] = RPMI 5 mM glucose + 10% dialyzed FBS, 0.569 µM
[30] = RPMI 5 mM glucose + 10% dialyzed FBS, 1.71 µM
[31] = RPMI 5 mM glucose + 10% dialyzed FBS, 5.12 µM
[32] = RPMI 5 mM glucose + 10% dialyzed FBS, 15.4 µM
[33] = RPMI 5 mM glucose + 10% dialyzed FBS, 46.1 µM

SMILES	cell viability [1] [%]	cell viability [2] [%]	cell viability [3] [%]	cell viability [4] [%]	cell viability [5] [%]	cell viability [6] [%]	cell viability [7] [%]	cell viability [8] [%]	cell viability [9] [%]	cell viability [10] [%]	cell viability [11] [%]	cell viability [12] [%]	cell viability [13] [%]	cell viability [14] [%]	cell viability [15] [%]	cell viability [16] [%]	cell viability [17] [%]	cell viability [18] [%]	cell viability [19] [%]	cell viability [20] [%]	cell viability [21] [%]	cell viability [22] [%]	cell viability [23] [%]	cell viability [24] [%]	cell viability [25] [%]	cell viability [26] [%]	cell viability [27] [%]	cell viability [28] [%]	cell viability [29] [%]	cell viability [30] [%]	cell viability [31] [%]	cell viability [32] [%]	cell viability [33] [%]
O=C1N\N=C(\C[C@@H]2CCN(C2)C(=O)C3CC3)N1C4=CC=C(C=C4)C5=CC=C6OC=CC6=C5	77.5	76.9	80.2	85.4	70.8	61.7	78.5	71.3	77.8	37.1	45.6	109	116	120	107	113	76.7	110	97.1	125	64.3	51.9	73.3	65	79.9	84.3	81.5	56.5	80.1	82.3	96.6	46.5	31.7
Cc1ccccc1C(C(=O)NC1CCCC1)N(C(=O)Cn1cnc2ccccc21)c1cccc(F)c1 (stereo not drawn)	133	114	119	113	112	113	124	119	108	111	80.9	120	126	121	128	127	122	126	122	122	112	83	119	107	128	125	137	119	120	113	126	118	84.9
COc1cc([C@@H]2c3cc4c(cc3[C@H](O)[C@H]3COC(=O)[C@H]23)OCO4)cc(OC)c1OC	78.4	52.4	20	21.5	12.9	14.8	11.1	10.8	7.23	6.55	3.29	102	38.7	14.9	18.2	8.76	10.5	7.96	7.03	4.97	4.12	3.41	79.2	52.7	16.7	20.1	7.53	9.95	7.34	6.19	4.79	3.29	3.02
CNC(=O)c1cc(Oc2ccc(NC(=O)Nc3ccc(Cl)c(C(F)(F)F)c3)c(F)c2)ccn1	83.2	91.4	91.1	78.4	84.3	80.6	39.7	43.7	35.3	25.9	25.1	97	101	112	114	73.8	89.4	44.1	44.1	31.6	27.2	21.8	86.9	96.7	82.1	84	61.7	73.6	47.3	31.7	26.9	18.8	20.3
C[C@]12CCC(=O)C(O)=C1CC[C@@H]1[C@@H]2CC[C@]2(C)C(=O)CC[C@@H]12	98.8	113	110	114	120	117	113	121	108	101	104	98.2	128	123	106	122	116	127	111	103	114	112	119	120	120	130	107	112	121	123	107	116	111
Clc1ccc(C(Cn2ccnc2)OCc2ccc(Sc3ccccc3)cc2)c(Cl)c1 (stereo not drawn)	88.8	74.9	99.2	96.4	98.2	79.4	93.6	77.9	82.1	87.1	81.1	110	104	109	108	116	106	105	92.2	77	92.7	95.8	101	95.7	107	122	130	100	103	93.5	81	96.8	75.7
CN(C)c1ccccc1CN1CCCN(Cc2ccccc2N(C)C)C1c1ccncc1	81.3	91.2	86.8	23	95.2	94.9	92.5	92.6	112	97.1	83.3	75.5	85.3	102	15	104	99.3	101	93.9	93.4	5.51	49.4	73.4	79.7	95.1	18.1	117	111	113	98.3	98.2	87.8	80
NCC/1=C/NC(=S)N1[C@H]2CCC3=C(F)C=C(F)C=C3C2	102	107	110	109	93.3	102	105	120	99.5	94.5	43.8	118	122	123	119	112	114	120	115	115	108	15.4											
